Experimental data from article PMC7730458, “Rational Computational Design of Fourth-Generation EGFR Inhibitors to Combat Drug-Resistant Non-Small Cell Lung Cancer” (International Journal of Molecular Sciences, 2020).
Read-outs that look alike come from different tables or passages of the source.

Key:
[1] = system: Ba/F3 cell lines with the d746-750/T790M/C797S mutant EGFR; experiment: cell proliferation inhibition assay, Ba/F3 triple mutant EGFR; settings: for IC50: Mus musculus, BaF3, 72 h, read-out: IC50 Ba/F3^d746-750/T790M/C797S; for Selectivity: Table 4, Ba/F3 wild type IC50 over mutant IC50
Experimental: (§3) The cells were treated with various concentrations of the compounds in duplicate. After 72 h, the fluorescence signals were measured at an excitation wavelength of 540 nm and an emission wavelength of 590 nm using a microplate reader. More specifically, the number of living cells was determined with CellTiter-Glo® Luminescent Cell Viability Assay (Promega).

[2] = system: Ba/F3 cell lines with the wild type EGFR; experiment: cell proliferation inhibition assay, Ba/F3 wild-type EGFR; settings: Mus musculus, BaF3, 72 h, read-out: IC50 Ba/F3
Experimental: as §3

[3] = target: T1, d746-750/T790M/C797S mutant EGFR (Homo sapiens, UniProt P00533, C797S/DEL746-750/T790M); experiment: radiometric ([γ-33P]-ATP) kinase assay, triple mutant EGFR; type: biochemical; settings: for Selectivity Index (IC50^WT/IC50^mutant): ratio of IC50 for the wild type to that for the triple mutant; for Selectivity: wild type IC50 over triple mutant IC50
T1 construct: purchased Reaction Biology Corp. (Malvern, PA, USA)
Experimental: (§1) This small number of virtual hits exemplifies the difficulty in discovering the fourth-generation inhibitors that are specific for the triple mutant. This can be understood in the context of the high structural similarity between the mutant and the wild type. All virtual hits were assessed for the presence of inhibitory activity against the d746-750/T790M/C797S mutant and the wild type via in vitro radiometric ([γ-^33P]-ATP) kinase assays (Reaction Biology Corp., Malvern, PA, USA). As a consequence of virtual and experimental screening, four molecules were identified as low-micromolar inhibitors of d746-750/T790M/C797S mutant. Actually, none of the four molecules have previously been reported as EGFR kinase inhibitors. With respect to disproving the possibility of acting as a false positive in enzyme inhibition assays, all four inhibitors were examined in the public ZINC database to confirm the lack of any substructure in pan assay interference compounds (PAINS).
(§2) The inhibitory activities of all compounds with respect to the wild type and the d746-750/T790M/C797S mutant of EGFR were measured by Reaction Biology Corp. (Malvern, PA, USA) using the radiometric kinase assays ([γ-^33P]-ATP). Briefly, the enzymatic reaction mixtures contained an artificial substrate peptide, poly-Glu-Tyr (4:1) in freshly prepared base reaction buffer (20 mM HEPES of pH 7.5, 10 mM MgCl2, 1 mM EGTA, 0.02% Brij-35, 0.02 mg/mL BSA, 0.1 mM Na3VO4, 2 mM DTT, 1% DMSO). Wild-type and mutant EGFR were delivered into the substrate solution and gently mixed. Each inhibitor in 100% DMSO in a serial dilution was then delivered to the reaction mixture using the acoustic dispensing system (Echo550; nanoliter range). To initiate the enzymatic reaction, ^33P-ATP with a specific activity of 10 μCi/μL was added into the reaction mixture, and the mixture was further incubated for 2 h at room temperature. Radioactivity was then monitored by the filter-binding method after reactions were spotted onto P81 ion exchange paper and the filters were washed extensively in 0.75% phosphoric acid. Kinase activity data were expressed as the percent remaining kinase activity in test samples compared to vehicle (dimethyl sulfoxide) reactions. IC50 values and curve fits were calculated with Prism Software (GraphPad Software) at 10 different concentrations. Staurosporine was employed as the positive control in this study.

[4] = target: T2, wild type EGFR (Homo sapiens, UniProt P00533); experiment: radiometric ([γ-33P]-ATP) kinase assay, wild-type EGFR; type: biochemical
T2 construct: purchased Reaction Biology Corp. (Malvern, PA, USA)
Experimental: as §1, §2

[5] = Table 1, mean ± standard deviations of two experiments, read-out: IC50 d746-750/T790M/C797S
[6] = Table 1, mean ± standard deviations of two experiments, read-out: IC50 Wild Type
[7] = Table 2, derivatives of 1, mean ± SD of two experiments, read-out: IC50 EGFR^d746-750/T790M/C797S
[8] = Table 2, derivatives of 1, wild type, mean ± SD of two experiments, read-out: IC50 EGFR
[9] = Table 3, derivatives of 2, mean ± SD of two experiments, read-out: IC50 EGFR^d746-750/T790M/C797S
[10] = Table 3, derivatives of 2, wild type, mean ± SD of two experiments, read-out: IC50 EGFR

T2 sequence (P00533 25-1210): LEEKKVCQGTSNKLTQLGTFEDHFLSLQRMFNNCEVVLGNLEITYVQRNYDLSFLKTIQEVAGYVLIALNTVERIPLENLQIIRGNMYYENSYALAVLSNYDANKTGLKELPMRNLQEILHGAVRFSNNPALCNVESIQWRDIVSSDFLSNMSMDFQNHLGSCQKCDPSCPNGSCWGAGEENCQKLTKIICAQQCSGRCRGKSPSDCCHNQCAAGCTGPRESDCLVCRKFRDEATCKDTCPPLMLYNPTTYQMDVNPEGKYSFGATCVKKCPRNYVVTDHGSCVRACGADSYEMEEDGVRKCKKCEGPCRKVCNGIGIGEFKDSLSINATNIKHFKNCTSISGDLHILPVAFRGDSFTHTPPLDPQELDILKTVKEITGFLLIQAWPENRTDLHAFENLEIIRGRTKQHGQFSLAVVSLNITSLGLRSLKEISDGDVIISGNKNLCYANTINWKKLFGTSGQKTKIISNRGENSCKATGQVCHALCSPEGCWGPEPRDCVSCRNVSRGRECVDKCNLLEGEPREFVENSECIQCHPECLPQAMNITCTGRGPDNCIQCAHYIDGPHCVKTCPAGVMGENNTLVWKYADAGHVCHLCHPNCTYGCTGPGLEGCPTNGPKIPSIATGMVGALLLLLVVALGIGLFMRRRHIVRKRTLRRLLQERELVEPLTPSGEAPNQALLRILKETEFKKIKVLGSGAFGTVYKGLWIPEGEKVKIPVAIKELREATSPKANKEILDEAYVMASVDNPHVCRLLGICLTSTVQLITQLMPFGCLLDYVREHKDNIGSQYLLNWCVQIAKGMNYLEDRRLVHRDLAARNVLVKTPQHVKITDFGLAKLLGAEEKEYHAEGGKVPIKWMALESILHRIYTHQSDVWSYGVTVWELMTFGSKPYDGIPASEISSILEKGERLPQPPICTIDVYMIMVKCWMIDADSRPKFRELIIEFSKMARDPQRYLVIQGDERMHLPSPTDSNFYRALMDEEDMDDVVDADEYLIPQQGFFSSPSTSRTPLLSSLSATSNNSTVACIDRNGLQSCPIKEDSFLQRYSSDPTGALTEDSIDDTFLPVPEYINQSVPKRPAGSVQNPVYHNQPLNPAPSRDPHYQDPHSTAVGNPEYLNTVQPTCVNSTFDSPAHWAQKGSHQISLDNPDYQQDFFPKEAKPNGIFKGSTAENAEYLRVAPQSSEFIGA
T1 sequence (P00533 with tags, fused parts or gaps DEL746-750/T790M/C797S): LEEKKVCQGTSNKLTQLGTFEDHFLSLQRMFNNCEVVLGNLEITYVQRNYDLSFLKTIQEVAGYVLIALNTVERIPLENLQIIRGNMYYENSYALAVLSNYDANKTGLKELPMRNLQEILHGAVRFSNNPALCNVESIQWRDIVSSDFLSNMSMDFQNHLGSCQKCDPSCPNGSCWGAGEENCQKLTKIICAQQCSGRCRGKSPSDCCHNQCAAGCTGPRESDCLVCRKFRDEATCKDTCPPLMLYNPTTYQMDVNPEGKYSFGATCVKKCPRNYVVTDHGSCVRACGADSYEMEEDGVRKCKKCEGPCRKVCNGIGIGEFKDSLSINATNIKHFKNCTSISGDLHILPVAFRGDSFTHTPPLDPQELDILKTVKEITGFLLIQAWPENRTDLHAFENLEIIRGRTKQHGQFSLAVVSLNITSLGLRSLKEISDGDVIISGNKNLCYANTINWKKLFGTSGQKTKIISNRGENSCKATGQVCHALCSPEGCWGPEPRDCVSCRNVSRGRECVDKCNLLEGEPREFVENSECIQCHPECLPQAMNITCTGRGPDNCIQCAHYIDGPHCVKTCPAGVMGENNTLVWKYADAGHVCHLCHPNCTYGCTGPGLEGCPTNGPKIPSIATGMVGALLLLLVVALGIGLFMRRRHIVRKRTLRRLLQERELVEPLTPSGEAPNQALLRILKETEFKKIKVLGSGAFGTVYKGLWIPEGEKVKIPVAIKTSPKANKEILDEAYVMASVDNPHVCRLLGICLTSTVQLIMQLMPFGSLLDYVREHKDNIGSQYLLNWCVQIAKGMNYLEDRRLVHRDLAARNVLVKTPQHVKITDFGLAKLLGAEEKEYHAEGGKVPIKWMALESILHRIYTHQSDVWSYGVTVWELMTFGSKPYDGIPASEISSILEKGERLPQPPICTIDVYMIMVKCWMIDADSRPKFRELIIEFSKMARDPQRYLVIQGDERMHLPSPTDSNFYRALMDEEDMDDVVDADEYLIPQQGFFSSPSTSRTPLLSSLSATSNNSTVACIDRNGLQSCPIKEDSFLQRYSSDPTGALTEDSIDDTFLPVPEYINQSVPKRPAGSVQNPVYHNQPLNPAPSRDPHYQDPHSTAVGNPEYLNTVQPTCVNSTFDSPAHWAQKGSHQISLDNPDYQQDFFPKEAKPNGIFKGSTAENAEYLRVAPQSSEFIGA

For COc1cc(N2CCC(N3CCN(C)CC3)CC2)ccc1Nc1ncc(Cl)c(Nc2ccccc2P(C)(C)=O)n1 [Brigatinib, reference compound], which IC50 [1] is on record?
The IC50 was 67 ± 14 nM.

And the Selectivity [1]?
Its Selectivity is 23.3.

What about the IC50 [2] of the same compound?
Its IC50 is 1560 ± 450 nM.

Which results are given for CC1CCCCN1Cc1c(O)ccc2c1O/C(=C\c1cc3ccccc3o1)C2=O (stereo not shown) [Compound 1]?
IC50 [3, 5]: 2110 ± 560 nM; Selectivity Index (IC50^WT/IC50^mutant) ([3]; Table 1): 34.5; Selectivity ([3]; Table 2): 34.5; IC50 [4, 6]: 72700 ± 4800 nM

With Oc1ccccc1-c1nc(NCCN2CCOCC2)c2ccccc2n1 [Compound 2] as the compound, how does the IC50 [3, 5] read?
Its IC50 is 1730 ± 380 nM.

And the “Selectivity Index (IC50^WT/IC50^mutant)” value ([3]; Table 1)?
Its value is 21.4.

And the Selectivity ([3]; Table 3)?
Its Selectivity is 21.4.

And the IC50 [4, 6]?
The IC50 was 37100 ± 2300 nM.

Which results are given for COc1ccccc1Nc1nc(N)nc(-c2oc3ccccc3c2C)n1 [Compound 3]?
IC50 [3, 5]: 2890 ± 910 nM; Selectivity Index (IC50^WT/IC50^mutant) ([3]; Table 1): 12.3; IC50 [4, 6]: 35500 ± 3500 nM

For c1ccc(CNc2ncnc3oc(-c4ccccc4)c(-c4ccccc4)c23)cc1 [Compound 4], which IC50 [3, 5] is on record?
Its IC50 is 802 ± 55 nM.

And the “Selectivity Index (IC50^WT/IC50^mutant)” value ([3]; Table 1)?
The value was 0.00733.

What about the “biochemical potency against the wild-type EGFR (in words)” value [4] of the same compound?
Its value is “nanomolar level”.

What about the IC50 [4, 6] of the same compound?
Its IC50 is 5.88 ± 0.98 nM.

What about the “higher inhibitory activity against the wild type than against the d746-750/T790M/C797S mutant” value ([4]; enzyme assays) of the same compound?
The value was 136 fold.

Which results are given for O=C1/C(=C/c2cc3ccccc3o2)Oc2c1ccc(O)c2CN1CCCCC1 [Compound 5, (Z)-2-(benzofuran-2-ylmethylene)-6-hydroxy-7-(piperidin-1-ylmethyl)benzofuran-3(2H)-one]?
IC50 [3, 7]: 3010 ± 730 nM; Selectivity ([3]; Table 2): 22.8; IC50 [4, 8]: 68700 ± 3400 nM

What does the source list for CC1CCCN(Cc2c(O)ccc3c2O/C(=C\c2cc4ccccc4o2)C3=O)C1 (stereo not shown) [Compound 6, (Z)-2-(benzofuran-2-ylmethylene)-6-hydroxy-7-((3-methylpiperidin-1-yl)methyl)benzofuran-3(2H)-one]?
IC50 [3, 7]: 1940 ± 350 nM; Selectivity ([3]; Table 2): 33.9; IC50 [4, 8]: 65700 ± 6000 nM

How did the IC50 [3, 7] turn out when CC1CCN(Cc2c(O)ccc3c2O/C(=C\c2cc4ccccc4o2)C3=O)CC1 [Compound 7, (Z)-2-(benzofuran-2-ylmethylene)-6-hydroxy-7-((4-methylpiperidin-1-yl)methyl)benzofuran-3(2H)-one] was run?
The IC50 was 5290 ± 1800 nM.

And the Selectivity ([3]; Table 2)?
Its Selectivity is 14.8.

What about the IC50 [4, 8] of the same compound?
The IC50 was 78700 ± 4600 nM.

COc1ccc2oc(/C=C3\Oc4c(ccc(O)c4CN4CCCC(C)C4)C3=O)cc2c1 (stereo not shown) [Compound 8, (Z)-6-hydroxy-2-((5-methoxybenzofuran-2-yl)methylene)-7-((3-methylpiperidin-1-yl)methyl)benzofuran-3(2H)-one] was tested. Which IC50 [3, 7] did it give?
Its IC50 is 20100 ± 7200 nM.

And the Selectivity ([3]; Table 2)?
Its Selectivity is over 4.98.

What about the IC50 [4, 8] of the same compound?
Its IC50 is over 100000 nM.

O=C1/C(=C/c2cc3ccccc3o2)Oc2c1ccc(O)c2CN1CCNCC1 [Compound 9, (Z)-2-(benzofuran-2-ylmethylene)-6-hydroxy-7-(piperazin-1-ylmethyl)benzofuran-3(2H)-one] was tested. Which IC50 [3, 7] did it give?
Its IC50 is 1100 ± 360 nM.

And the IC50 [4, 8]?
Its IC50 is 21300 ± 6300 nM.

What does the source list for COc1ccc2oc(/C=C3\Oc4c(ccc(O)c4CN4CCNCC4)C3=O)cc2c1 [Compound 10, (Z)-6-hydroxy-2-((5-methoxybenzofuran-2-yl)methylene)-7-(piperazin-1-ylmethyl)benzofuran-3(2H)-one]?
IC50 [3, 7]: 1630 ± 430 nM; Selectivity ([3]; Table 2): 22.6; IC50 [4, 8]: 36800 ± 3900 nM

For O=C1/C(=C/c2cc3cc(O)ccc3o2)Oc2c1ccc(O)c2CN1CCNCC1 [Compound 11, (Z)-6-hydroxy-2-((5-hydroxybenzofuran-2-yl)methylene)-7-(piperazin-1-ylmethyl)benzofuran-3(2H)-one], which IC50 [3, 7] is on record?
Its IC50 is 715 ± 242 nM.

What about the Selectivity ([3]; Table 2) of the same compound?
The Selectivity was 1.45.

What about the IC50 [4, 8] of the same compound?
The IC50 was 1040 ± 160 nM.

With CCN(CC)CCCNc1nc(-c2ccccc2O)nc2ccccc12 [Compound 12, 2-(4-((3-(diethylamino)propyl)amino)quinazolin-2-yl)phenol] as the compound, how does the IC50 [3, 9] read?
The IC50 was 516 ± 206 nM.

And the Selectivity ([3]; Table 3)?
Its Selectivity is over 96.9.

And the IC50 [4, 10]?
Its IC50 is over 50000 nM.

Which results are given for CCN(CC)CCCNc1nc(-c2cc(C#N)ccc2O)nc2ccccc12 [Compound 13, 3-(4-((3-(diethylamino)propyl)amino)quinazolin-2-yl)-4-hydroxybenzonitrile]?
IC50 [3, 9]: 26.5 ± 8.4 nM; Selectivity ([3]; Table 3): 319; IC50 [4, 10]: 8450 ± 1890 nM

For Oc1ccccc1-c1nc(NCc2cscn2)c2ccccc2n1 [Compound 14, 2-(4-((thiazol-4-ylmethyl)amino)quinazolin-2-yl)phenol], which IC50 [3, 9] is on record?
The IC50 was 1120 ± 210 nM.

And the Selectivity ([3]; Table 3)?
Its Selectivity is over 44.6.

What about the IC50 [4, 10] of the same compound?
The IC50 was over 50000 nM.

Which Selectivity ([3]; Table 3) does the source give for N#Cc1ccc(O)c(-c2nc(NCc3cc[nH]c3)c3ccccc3n2)c1 [Compound 16, 3-(4-(((1H-pyrrol-3-yl)methyl)amino)quinazolin-2-yl)-4-hydroxybenzonitrile] here?
Its Selectivity is over 693.

And the IC50 [4, 10]?
Its IC50 is over 50000 nM.

Which results are given for N#Cc1ccc(O)c(-c2nc(NCc3cocn3)c3ccccc3n2)c1 [Compound 17, 4-hydroxy-3-(4-((oxazol-4-ylmethyl)amino)quinazolin-2-yl)benzonitrile]?
IC50 [3, 9]: 593 ± 76 nM; Selectivity ([3]; Table 3): >84.3; IC50 [4, 10]: > 50000 nM

With N#Cc1ccc(O)c(-c2nc(NCc3c[nH]cn3)c3ccccc3n2)c1 [Compound 18, 3-(4-(((1H-imidazol-4-yl)methyl)amino)quinazolin-2-yl)-4-hydroxybenzonitrile] as the compound, how does the “biochemical potency against the d746-750/T790M/C797S mutant (in words)” value [3] read?
Its value is “low-nanomolar level”.

What about the IC50 [3, 9] of the same compound?
The IC50 was 7.47 ± 0.39 nM.

What about the Selectivity ([3]; Table 3) of the same compound?
The Selectivity was over 6693.

And the “selectivity in the inhibition of EGFR^d746-750/T790M/C797S over the wild type” value ([3]; enzyme assays)?
Its value is “more than 6690 fold”.

And the “antiproliferative activity against the d746-750/T790M/C797S mutant cell (in words)” value [1]?
The value was “submicromolar level”.

And the IC50 [1]?
The IC50 was 780 ± 310 nM.

And the Selectivity [1]?
Its Selectivity is over 6.41.

And the IC50 [2]?
Its IC50 is over 5000 nM.

What about the IC50 [4, 10] of the same compound?
Its IC50 is over 50000 nM.

What does the source list for Cn1cnc(CNc2nc(-c3cc(C#N)ccc3O)nc3ccccc23)c1 [Compound 19, 4-hydroxy-3-(4-(((1-methyl-1H-imidazol-4-yl)methyl)amino)quinazolin-2-yl)benzonitrile]?
biochemical potency against the d746-750/T790M/C797S mutant (in words) [3]: low-nanomolar; IC50 [3, 9]: 3.38 ± 1.02 nM; Selectivity ([3]; Table 3): >14793; selectivity index / factor, triple mutant over the wild type ([3]; enzyme assays): higher than 10^4; antiproliferative activity against the d746-750/T790M/C797S mutant cell (in words) [1]: submicromolar level; IC50 [1]: 740 ± 220 nM; Selectivity [1]: 3.34; IC50 [2]: 2470 ± 890 nM; IC50 [4, 10]: > 50000 nM

How did the “biochemical potency against the d746-750/T790M/C797S mutant (in words)” value [3] turn out when N#Cc1ccc(O)c(-c2nc(NCCc3c[nH]cn3)c3ccccc3n2)c1 [Compound 20, 3-(4-((2-(1H-imidazol-4-yl)ethyl)amino)quinazolin-2-yl)-4-hydroxybenzonitrile] was run?
Its value is “low-nanomolar”.

What about the IC50 [3, 9] of the same compound?
The IC50 was 4.84 ± 0.63 nM.

What about the Selectivity ([3]; Table 3) of the same compound?
The Selectivity was over 10331.

What about the “selectivity index / factor, triple mutant over the wild type” value ([3]; enzyme assays) of the same compound?
Its value is “higher than 10^4”.

What about the IC50 [4, 10] of the same compound?
The IC50 was over 50000 nM.

Which results are given for Cn1cnc(CNc2nc(-c3cc(C=O)ccc3O)nc3ccccc23)c1 [Compound 21, 4-hydroxy-3-(4-(((1-methyl-1H-imidazol-4-yl)methyl)amino)quinazolin-2-yl)benzaldehyde]?
IC50 [3, 9]: 7.93 ± 1.68 nM; Selectivity ([3]; Table 3): 118; IC50 [4, 10]: 935 ± 173 nM
